In the test the test system is Phytophthora infestans. In kind it is in vivo. The note with it: potted tomato plants, untreated plants 90% infestation.
[1] abbreviates: 1 day of protective treatment, 250 ppm.
Setting [2] is: 3 days of protective treatment, 250 ppm.

Like-named read-outs stand apart in the source and are kept apart here.

The text below walks through data of patent US20080262000A1, “5-Alkoxyalkyl-6-alkyl-7-Aminoazolopyrimidines, Process for Their Preparation, Their Use for Controlling Harmful Fungi, and Compositions Comprising Them” (BASF Aktiengesellschaft, priority 2005, published 2008).

`CCCCCCCCOCCCc1c(COC)nc2ncnn2c1N` [I-4] registered an infestation under setting [1] of 1%.

Turning to `CCCCCCCCc1c(C)nc2ncnn2c1N` [comparative compound A], the infestation is, setting by setting: (1 day of protective treatment, 16 ppm) 70%; under setting [2], 90%.

Turning to `CCCCCCCCOCCCc1c(CCC)nc2ncnn2c1N` [comparative compound B], the infestation is, setting by setting: under setting [1], 90%; under setting [2], 90%.
